Assay results: PMC7177638 (International Journal of Molecular Sciences, 2020)

What was measured:
[1] = tested on: 2008 human ovarian cancer cells; assay: MTT cytotoxicity test, 72 h; assay type: cell-based; conditions: 2008, MTT
Protocol: (§1) The in vitro cytotoxic activities of compounds 1–6 were assayed on a panel of human cancer cell lines containing examples of pancreatic (PSN-1), colon (HCT-15 and LoVo), cervical (A431), and ovarian (2008) cancers. Cisplatin and oxaliplatin were used as reference compounds and were tested under the same experimental conditions.
(§2) Human colon (HCT-15 and LoVo) and pancreatic (PSN-1) carcinoma cell lines were obtained from the American Type Culture Collection (ATCC, RocKville, MD). The 2008 human ovarian cancer cells were kindly provided by Prof. G. Marverti (Dept. of Biomedical Science of Modena University, Italy). Human cervical carcinoma (A431) cells were kindly provided by Prof. F. Zunino (Division of Experimental Oncology B, Istituto Nazionale dei Tumori, Milan, Italy). […] Cell lines were maintained in the logarithmic phase at 37 °C in a 5% carbon dioxide atmosphere using RPMI-1640 or F-12 culture medium (Euroclone) containing 10% fetal calf serum (Euroclone, Milan, Italy), antibiotics (50 units per mL penicillin and 50 μg mL^−1 streptomycin), and 2 mM L-glutamine.
(§3) The growth inhibitory effect toward the tumor cell lines was evaluated by the MTT test. Briefly, 3-8·10^3 cells/well, depending upon the growth characteristics of the cell lines, were seeded in 96-well microplates in growth medium (100 µL) and then incubated at 37 °C in a 5% carbon dioxide atmosphere. After 24 h, the medium was removed and replaced with a fresh one containing the compound to be tested at the appropriate concentration. Triplicate cultures were established for each treatment. After 72 h, each well was treated with 10 µL of a 5 mg·mL^−1 MTT (3-(4,5-dimethylthiazol-2-yl)-2,5-diphenyltetrazolium bromide) saline solution and, after 5 h of incubation, 100 µL of a sodium dodecylsulfate (SDS) solution in HCl 0.01 M were added. Following an overnight incubation, the inhibition of cell growth induced by the tested complexes was evaluated by measuring the absorbance of each well at 570 nm using a Bio-Rad 680 microplate reader (Bio-Rad Laboratories S.r.l., Segrate (MI), Italy).

[2] = tested on: A431 human cervical carcinoma cells; assay: MTT cytotoxicity test, 72 h; assay type: cell-based
Protocol: as §1, §2, §3

[3] = tested on: HCT-15 human colon carcinoma cells; assay: MTT cytotoxicity test, 72 h; assay type: cell-based; conditions: HCT-15, MTT
Protocol: as §1, §2, §3

[4] = tested on: LoVo human colon carcinoma cells; assay: MTT cytotoxicity test, 72 h; assay type: cell-based
Protocol: as §1, §2, §3

[5] = tested on: PSN-1 human pancreatic carcinoma cells; assay: MTT cytotoxicity test, 72 h; assay type: cell-based; conditions: PSN-1, MTT
Protocol: as §1, §2, §3

[6] = XPS Pt4f surface reduction of Pt(IV) to Pt(II) under X-ray irradiation; assay type: physicochemical; conditions: for % of Reduction: after 30 min irradiation, calculated from Pt(IV) abundances
From the text: The Pt(IV) complexes were also characterized by X-ray photoelectron spectroscopy (XPS) in order to obtain information on the surface chemical composition and on the platinum speciation. Despite the surface sensitivity of the technique (topmost 5–8 nm), the analysis on homogeneous samples provides useful information on the chemical environment of all detected elements. […] Two doublets were found: one is attributed to Pt(II) (BE Pt4f7/2 = 72.9 ± 0.2 eV and BE Pt4f5/2 = 76.2 ± 0.2 eV), while the second doublet is attributed to Pt(IV) (BE Pt4f7/2 = 75.6 ± 0.2 eV and BE Pt4f5/2 = 79.0 ± 0.2 eV).
The Pt(IV)/Pt(II) relative abundance varies from case to case; moreover, if the X-ray degradation is monitored after 30 min exposure to the X-ray beam, an increase of the Pt(II) relative abundance is observed (Figure 8b).
X-ray Photoelectron Spectroscopy (XPS) analyses were run on a PHI 5000 Versa Probe II Scanning XPS Microprobe spectrometer (ULVAC PHI Inc., Kanagawa, Japan). Measurements were carried out using a monochromatic Al Kα source (X-ray spot 200 μm) at a power of 50.3 W. Wide scan and detailed spectra (Pt4f, C1s, Cl2p, N1s, O1s) were acquired in Constant Analyzer Energy (CAE) mode with a pass energy of 117.40 and 29.35 eV, respectively. An electron gun was used for charge compensation (1.0 V, 20.0 μA). Due to the X-ray sensitivity of Pt(IV) complexes, the Pt4f spectral region was acquired first. X-ray degradation kinetics experiments were performed analyzing the same sample area after 30 min. Data processing was performed by using the MultiPak software v. 9.8.0.19.

[7] = Cyclic voltammetry, cathodic reduction potential in aqueous solution; assay type: physicochemical; conditions: values normalized vs. SCE; phosphate buffer pH 7.4, 5 mM NaCl, 5·10^−4 M complex, scan rate 0.020 V s^−1
Protocol: The electrochemical characterization of compounds 1–6, performed by using cyclic voltammetry (CV), was carried out with the aim of determining the cathodic reduction potentials in aqueous solution (Ep^c).
Cyclic voltammetry (CV) measurements were carried out with a potentiostat CHI 1230B (CH Instruments, Inc., Austin, TX, USA) in a standard three-electrode electrochemical cell. The working electrode was a glassy carbon (GC) electrode, the reference electrode was a KCl-saturated Ag/AgCl and the counter was a Pt sheet. The GC electrode was carefully polished with alumina powder, then rinsed with distilled water and dried, to obtain a reproducible surface for all the experiments. All the measurements, conducted in triplicate, were carried out in buffered aqueous solutions containing the Pt(IV) compound at a concentration of 5·10^−4 M in 10 mL phosphate buffer (PB, pH = 7.4, I = 0.1) and 5 mM NaCl as supporting electrolyte. A blank solution (without Pt(IV) complex) was also tested. All the peak potentials were measured with a scan rate of 0.020 V s^−1; the initial potential was chosen equal to the open-circuit potential and the scan direction was negative. All the CV plots were acquired after an equilibration time of 2 min in order to make the GC surface reproducible.

[8] = tested on: LoVo-OXP cancer cells; assay: MTT cytotoxicity test, 72 h, oxaliplatin-resistant cells; assay type: cell-based, human; conditions: LoVo OXP
From the text: as §2, §3

[9] = tested on: human A431 cancer cell spheroids; assay: Cytotoxicity towards 3D spheroids, acid phosphatase (APH) assay; assay type: cell-based; conditions: A431 3D spheroids, 72 h, APH assay
From the text: The remarkable cell-killing effect observed against human A431 squamous cervical carcinoma two-dimensional (2D) cultured cells prompted us to evaluate the in vitro antitumor activity of compounds 1–6 on three-dimensional (3D) cell cultures. As opposed to 2D monolayer cultures, cells growing in 3D culture systems form spheroids that comprise cells in various stages. […] Such cellular heterogeneity resembles that of in vivo tumors, making 3D cell cultures more predictive than conventional 2D monolayer cultures in screening antitumor drugs.
Spheroid cultures were obtained by seeding 2.5 × 10^3 A431 cancer cells/well in a round bottom non-treated tissue culture 96 well-plate (Greiner Bio-one, Kremsmünster, Austria) in phenol red free RPMI-1640 medium (Sigma Chemical Co.) containing 10% fetal calf serum (FCS) and supplemented with 20% methyl cellulose stock solution.
An APH modified assay was used for determining cell viability in 3D spheroids, as previously described. IC50 values were calculated with a four parameter logistic (4-PL) model.

[10] = logPo/w by shake-flask method with ICP-MS Pt determination; assay type: physicochemical; conditions: n-octanol / 0.15 M KCl in water
[11] = tested on: cisplatin-resistant ovarian C13* cell line; set-up: method as in PMID 22788918; conditions: cited from earlier work
[12] = tested on: oxaliplatin-resistant colon LoVo-OXP cell line; set-up: method as in PMID 22788918; conditions: cited from earlier work
[13] = tested on: panel of human tumor cell lines (A431, 2008, HCT-15, LoVo, LoVo OXP, LoVo MDR); conditions: cited from earlier work
[14] = tested on: LoVo OXP cells; conditions: cited from earlier work
[15] = tested on: panel of human cancer cell lines (PSN-1, HCT-15, LoVo, A431, 2008); assay: MTT cytotoxicity, average over the panel of human cancer cell lines; assay type: cell-based; conditions: mean over the cell line panel, 72 h
Protocol: as §1
[17, 30] Thus, the pharmacological activity decreases in the order 3 >> 1 ≈ 2 ≈ 4 > 5 > 6.
as §3

[16] = Stability in solution followed by 1H-NMR (solvent-assisted photoreduction); assay type: physicochemical; conditions: DMSO-d6, room temperature, not shielded from light
From the text: (5.4–6.5 ppm). Most likely, compound 4 underwent a solvent-assisted reduction process favored by light, as previously observed for similar compounds such as cis,trans,cis-[PtCl2(OH)2(cis-1,4-DACH)] [19, 20]. […] This reduction/solvation could also be observed in other solvents, such as D2O and CD3OD.
As for compound 4, the reduction is probably fostered by the presence of axial chlorido ligand(s).
The ^13C NMR signals are influenced by the asymmetry of the complex with respect to the equatorial plane with two peaks at 125.4 and 125.2 ppm for the vinylic carbons, two signals at 60.2 and 59.3 ppm for the methynic carbons, and two signals at 33.1 and 32.6 ppm for the methylenic carbons (Figure S10).

Compound | IC50 [1] | IC50 [2] | IC50 [3] | IC50 [4] | IC50 [5] | % of Reduction [6] | Cathodic reduction potential Ep^c [7] | IC50 [8] | IC50 [9] | % Relative Abundance Pt(IV)/(II), After 30 min Irradiation ([6]; after 30 min X-ray irradiation) | % Relative Abundance Pt(IV)/(II), As Irradiated ([6]; onset of the experiment) | logPo/w [10] | activity against cell line [11] | activity against cell line [12] | ability to overcome oxaliplatin resistance (LoVo vs LoVo-OXP) [13] | cytotoxic activity compared with cisplatin and oxaliplatin ([13]; panel of human tumor cell lines) | lipid droplets formation [14] | IC50 [15] | stability in solution (reduction to Pt(II) / solvation) [16]
CC(=O)[O][Pt]1([O]C(C)=O)[O]C(=O)C(=O)[O]1.NC1CC=CCC1N [Complex 2, cis,trans,cis-[Pt(OXA)(AcO)2(DACHEX)]] | 330 ± 500 nM | 550 ± 100 nM | 1270 ± 500 nM | 590 ± 100 nM | 2.85 ± 0.7 µM | 65% | −1.03 V | > 2000 nM | 3.4 ± 0.9 µM | – | – | – | – | – | – | – | – | – | –
cis,trans,cis-[Pt(OXA)(OH)2(DACHEX)] [Complex 1] | 720 ± 100 nM | 490 ± 200 nM | 440 ± 100 nM | 840 ± 300 nM | 3.15 ± 0.8 µM | 44% | −1.05 V | > 2000 nM | 5.8 ± 0.8 µM | 48/52 | 86/14 | −3.05 | – | – | – | – | – | – | –
NC1CCC(N)CC1.[Cl][Pt+2][Cl] (stereo not drawn) [Kiteplatin, [PtCl2(cis-1,4-DACH)]] | – | – | – | – | – | – | – | – | – | – | – | – | active | active | – | – | – | – | –
NC1CC=CCC1N.O=C1[O][Pt][O]C1=O (racemic) [[Pt(OXA)(DACHEX)]] | – | – | – | – | – | – | – | – | – | – | – | – | – | – | equally active | better than that of cisplatin and comparable to or better than that of oxaliplatin | induced lipid droplets formation | – | –
[NH2][Pt]([NH2])([Cl])[Cl] [CDDP, cisplatin, reference compound] | 2230 ± 100 nM | 1430 ± 400 nM | 15300 ± 2600 nM | 7600 ± 1500 nM | 16.6 ± 4.2 µM | – | – | – | 58.3 ± 0.9 µM | – | – | – | – | – | – | – | – | 8.6 µM | –
NC1CC=CCC1N.O=C1[O][Pt]([Cl])([Cl])[O]C1=O (racemic) [Complex 4, cis,trans,cis-[Pt(OXA)Cl2(DACHEX)]] | 420 ± 100 nM | 430 ± 200 nM | 1170 ± 200 nM | 390 ± 30 nM | 3.08 ± 1.1 µM | 67% | −0.72 V | > 2000 nM | 9.9 ± 2.6 µM | – | – | – | – | – | – | – | – | – | quite unstable
O=C1[O][Pt]2([NH][C@@H]3CCCC[C@H]3[NH]2)[O]C1=O [OXP, oxaliplatin, reference compound] | 1530 ± 900 nM | 3800 ± 1300 nM | 1150 ± 400 nM | 1100 ± 600 nM | 7.9 ± 3.5 µM | – | – | 14300 ± 2100 nM | 36.3 ± 1.2 µM | – | – | – | – | – | – | – | – | 3.1 µM | –
